From patent publication US9012604B2, “Triazanonane derivatives or pharmaceutically acceptable salt thereof for enhanced fluorine-18 labeling” (Snur & DB Foundation, priority 2011, dated 2015)

Tested on: human serum protein
Test: Human serum protein binding measurement
Type: in vitro ADME
Settings: compared with NO2A compound
Protocol: The labeling compounds were cultured in human serum (1 mL) at 37° C. for 10 min and 60 min, and loaded to PD-10 column (pre-conditioned with 1 mL of 1% BSA/0.1 M DTPA), swept under stream of PBS into 30 test tubes by 0.5 mL fractions each. The radioactivity of each test tube was measured with gamma counter, and […] of sample was collected from the respective test tubes. After impression on the paper filter and staining with Coomassie blue, the protein peaks were observed. By plotting a curve of radioactivity of the respective fractions and calculating protein binding percent, the result was obtained as shown in Table 3.

binding to human serum protein relative to NO2A compound: three times higher
Structure (SMILES): O=C(O)CCCN1CCN(CC(=O)O)CCN(CC(=O)O)CC1 [Example 1, 4,7-bis(carboxymethyl)-1,4,7-triazonane-1-butyric acid]
